Data: the NIST ThermoML archive (doi:10.1021/je060271a)

Conditions: 283.15 K, Liquid, Vibrating tube method

CCCCCC(=O)OCC(COC(=O)CCCCC)(COC(=O)CCCCC)COC(=O)CCCCC [pentaerythritol tetrahexanoate]
Conditions	mass density [kg/m3]
20425 kPa	1015.6
20443 kPa	1015.7
20458 kPa	1015.7
20473 kPa	1015.7
20491 kPa	1015.7
20506 kPa	1015.6
20522 kPa	1015.6
20537 kPa	1015.7
20555 kPa	1015.7
20571 kPa	1015.7
20586 kPa	1015.8
20606 kPa	1015.7
20621 kPa	1015.7
20637 kPa	1015.9
20652 kPa	1015.7
20670 kPa	1015.8
20686 kPa	1015.8
20701 kPa	1015.7
20719 kPa	1015.8
20735 kPa	1015.7
20750 kPa	1015.8
20769 kPa	1016
20785 kPa	1015.8
20801 kPa	1016
20817 kPa	1015.9
20836 kPa	1015.8
20851 kPa	1015.8
20867 kPa	1015.8
20886 kPa	1015.9
20902 kPa	1015.9
20918 kPa	1015.9
20937 kPa	1015.9
20953 kPa	1015.9
20968 kPa	1015.9
20988 kPa	1015.9
21004 kPa	1016
21021 kPa	1016
21040 kPa	1016
21057 kPa	1016
21073 kPa	1016
21092 kPa	1016
21106 kPa	1016
21122 kPa	1016
21140 kPa	1016.1
21155 kPa	1016
21170 kPa	1015.9
21185 kPa	1016.1
21204 kPa	1016.1
21219 kPa	1016
21237 kPa	1016
21252 kPa	1016.1
21267 kPa	1016.1
21282 kPa	1016.1
21301 kPa	1016.1
21316 kPa	1016.1
21332 kPa	1016.1
21350 kPa	1016.1
21366 kPa	1016.2
21384 kPa	1016.2
21399 kPa	1016.1
21415 kPa	1016.1
21430 kPa	1016.2
21449 kPa	1016.3
21465 kPa	1016.1
21480 kPa	1016.2
21499 kPa	1016.1
21514 kPa	1016.3
21530 kPa	1016.3
21546 kPa	1016.3
21565 kPa	1016.2
21581 kPa	1016.1
21597 kPa	1016.3
21616 kPa	1016.3
21632 kPa	1016.3
21648 kPa	1016.3
21667 kPa	1016.2
21684 kPa	1016.3
21699 kPa	1016.3
21715 kPa	1016.3
21734 kPa	1016.4
21766 kPa	1016.3
21786 kPa	1016.3
21802 kPa	1016.5
21821 kPa	1016.3
21837 kPa	1016.4
21853 kPa	1016.4
21870 kPa	1016.3
21887 kPa	1016.3
21904 kPa	1016.4
21923 kPa	1016.5
21940 kPa	1016.5
21959 kPa	1016.4
21976 kPa	1016.5
21992 kPa	1016.5
22008 kPa	1016.5
22028 kPa	1016.5
22044 kPa	1016.5
22061 kPa	1016.5
22081 kPa	1016.5
22098 kPa	1016.4
22117 kPa	1016.6
22134 kPa	1016.7
22150 kPa	1016.5
22170 kPa	1016.6
22187 kPa	1016.6
22204 kPa	1016.7
22224 kPa	1016.5
22241 kPa	1016.6
22261 kPa	1016.5
22278 kPa	1016.5
22295 kPa	1016.5
22316 kPa	1016.6
22333 kPa	1016.6
22350 kPa	1016.7
22367 kPa	1016.7
22386 kPa	1016.7
22402 kPa	1016.7
22421 kPa	1016.6
22436 kPa	1016.7
22452 kPa	1016.7
22468 kPa	1016.6
22487 kPa	1016.8
22503 kPa	1016.7
22522 kPa	1016.7
22538 kPa	1016.8
22555 kPa	1016.8
22574 kPa	1016.7
22590 kPa	1016.8
22607 kPa	1016.7
22623 kPa	1016.8
22643 kPa	1016.7
22660 kPa	1016.7
22676 kPa	1016.8
22695 kPa	1016.9
22710 kPa	1016.9
22728 kPa	1016.8
22744 kPa	1016.8
22760 kPa	1016.9
22779 kPa	1016.9
22795 kPa	1017
22810 kPa	1016.8
22826 kPa	1017
22845 kPa	1017
22861 kPa	1016.8
22880 kPa	1017
